Test results as given in patent publication US4957909A, “Benzobicycloalkane derivatives as anticonvulsant neuroprotective agents” (American Home Products Corporation, priority 1990, dated 1990).

What was measured:
[1] = test system: male Swiss-albino mice (CD-1 strain); experiment: NMDA antagonism in mice: NMDA-induced generalized myoclonus and death, ED50 for survival; type: in vivo; conditions: mice pretreated 30 min before NMDA 195 mg/kg i.p.
Protocol: The mice were pretreated with the representative test compounds followed thirty minutes later with NMDA (195 mg/kg, i.p., the ED90 dose for generalized myoclonus). The mice were then observed for 30 minutes, noting the latency of onset of generalized myoclonus (uncontrollable hind leg scratching or limbs and/or torso muscle jerking with loss of righting reflex) and death. From the latter, the ED50 for survival is determined.

[2] = test system: NMDA-induced neuronal release of norepinephrine; experiment: Inhibition of NMDA-induced [3H]norepinephrine release from rat hippocampal slices; type: cell-based; conditions: 100 μM concentration, NMDA 150 μM
Protocol: In addition, the compounds involved herein were established as inhibitors of NMDA-induced neuronal release of norepinephrine by showing that (-)-13β-methylamino-3-methoxy-5α-methyl-5,6,7,8,9,10,11,12-octahydro-5,11-meth-anobenzocyclodecene inhibits 89 percent of the NMDA-inducednorepinephrine release at 100 μM concentration in the following standard test procedure:
Rat hippocampal slices (0.5 mm thick) were incubated (37° C.) for 30 minutes in oxygenated (bubbled 95% O2 /5% CO2), physiological medium (containing 117 mM NaCl, 4.7 mM KCl, 11.5 mM glucose, 1.2 mM MgCl2, 10 μM pargyline, 1 mM ascorbate, 1.2 mM NaH2 PO4 and 25 mM NaHCO3, adjusted to pH 7.4). The slices were then washed with 0.9% NaCl and incubated in physiological medium with 0.1 μM [^3 H] norepinephrine (30 minutes, 37° C.). The slices were again washed with 0.9% NaCl and then placed in tubes (borosilicate glass, 12×75 mm) containing 0.5 ml Mg^+2 -free physiological medium with 50 μM corticosterone and 10 μM desipramine added to minimize norepinephrine reuptake. Samples were analyzed for [^3 H] content at 5 minute intervals. After 75 minutes, the inhibitor drug was added. Fifteen minutes later NMDA was added to a concentration of 150 μM. The amount of [^3 H] released was measured by liquid scintillation spectroscopy. […]

CNC1C2CCCCCC1(C)c1cc(OC)ccc1C2 (single isomer, unassigned; (-)) [(-)-13β-methylamino-3-methoxy-5α-methyl-5,6,7,8,9,10,11,12-octahydro-5,11-methanobenzocyclodecene]
ED50 for survival ([1]; i.p.): 56 mg/kg | ED50 for survival ([1]; p.o.): 97 mg/kg | inhibition of NMDA-induced norepinephrine release [2]: 89%
